Where two headings read alike, the source gives them in different places.
How the values were obtained:
Assay type in all cases: in vivo
[1] = test system: maximal electroshock (MES) seizures; test: Maximal electroshock (MES) test, i.p. administration in mice; conditions: Mus musculus, ip, doses of 30, 100 or 300 mg/kg
Protocol: (§1) Considering the aforementioned facts, the profile of anticonvulsant activity of final compounds 3–24 was established in the MES and scPTZ tests, after intraperitoneal (i.p.) injection in mice at doses of 30, 100 and 300 mg/kg. An observation was carried out at two different time intervals—0.5 and 4 h. Furthermore, in addition to the primary anticonvulsant screening, the acute neurological toxicity (NT) was determined in mice by the rotarod test.
(§2) Compounds 3–24 were pharmacologically preevaluated within the Antiepileptic Drug Development (ADD) Program in Epilepsy Branch, Neurological Disorders Program, National Institute of the Neurological and Communicative Disorders and Stroke (NIH/NINDS), Rockville, MD, USA, by using procedures described elsewhere (Krall et al., [1978]; Kupferberg, [1989]).
(§3) Phase I of the in vivo studies involved three tests: MES, scPTZ and rotarod test for NT. Male albino mice (CF#1 strain, weighing 18–25 g) and male albino rats (Sprague–Dawley) were used as experimental animals. The animals were housed in metabolic cages and allowed free access to food and water. The compounds were injected intraperitoneally to mice as a suspension in 0.5 % methylcellulose/water mixture at a dose level 30, 100 or 300 mg/kg with anticonvulsant activity and neurotoxicity assessment at 0.5 and 4 h after administration. Promising derivatives from phase I underwent phase VIa in which they were administrated orally into rats at a fixed dose of 30 mg/kg for both MES and the rotarod toxicity determination at five pretreatment times: 0.25, 0.5, 1, 2, 4 h. Groups of eight mice or four rats are employed.
In the MES screen, an electrical stimulus of 0.2 s in duration (50 mA in mice and 150 mA in rats) is delivered via corneal electrodes primed with an electrolyte solution containing an anesthetic agent. The endpoint is the tonic extension of the hind limbs. In the control groups, the procedures cause immediate hind limb tonic extension. Mice not displaying hind limb tonic extension are considered to be protected from seizures.

[2] = test system: pentylenetetrazole-induced seizures; test: Subcutaneous pentylenetetrazole (scPTZ) test, i.p. administration in mice; conditions: Mus musculus, ip, doses of 30, 100 or 300 mg/kg
Protocol: as §1, §2, §3
The scPTZ test utilizes a dose of pentylenetetrazole (85 mg/kg in mice) that produces clonic seizures lasting for a period of at least 5 s in 97 % (CD97) of animals tested. PTZ is administered 0.5 and 4 h after injections of tested compounds, and observation is carried out for 30 min. In the control groups, the first episode of clonic convulsions is observed between 6 and 15 min of observation. The absence of clonic convulsions in the observed time period of […] is interpreted as the compound’s ability to protect against PTZ-induced seizures.

mice (rotarod test) = test: Neurotoxicity screening (NT), rotarod test, i.p. administration in mice; conditions: for dose showing neurotoxicity in the rotarod test (NT): ip
Protocol: as §1, §3
The neurological toxicity test (NT) induced by a compound was detected in mice or rats using standardized rotarod test (Dunham and Miya, [1957]). Untreated control mice or rats, when placed on the rod, can maintained their equilibrium for a prolonged time period.

[3] = test system: 6-Hz psychomotor seizures; test: Psychomotor seizure test (6-Hz), i.p. in mice; conditions: 100 mg/kg
Source text: In the next step of pharmacological investigations, four compounds 12, 19, 20 and 24 were chosen for the evaluation of anticonvulsant activity in the psychomotor 6-Hz test (Table 4). The selection was made randomly as a part of the search of molecules providing anti-6-Hz protection among chemically diversified compounds pursued in the NIH/NINDS. It should be noticed that 6-Hz screen has been validated as a model of therapy-resistant epilepsy (Barton et al., [2001]).
The 6-Hz model is an alternative electroshock paradigm that uses low-frequency (6 Hz), long-duration (3 s) electrical stimulation. Corneal stimulation (0.2 ms duration monopolar rectangular pulses at 6-Hz for 3 s) was delivered by a constant-current device. During the stimulation, mice were manually restrained and released into the observation cage immediately after the current application. The seizures manifest in “stunned” posture associated with rearing, forelimb, automatic movements and clonus, twitching the vibrissae and Straub–tail. The duration of the seizure activity ranges from 60 to 120 s in untreated animals. At the end of the seizure, animals resume their normal exploratory behavior. The experimental end point is protection against the seizure. The animal is considered to be protected if it resumes its normal exploratory behavior within 10 s from the stimulation (Brown et al., [1953]).

[4] = 0.5 h, read-out: MES, minimum dose effective in half or more animals tested, 0.5 h
[5] = 4 h, read-out: MES, minimum dose effective in half or more animals tested, 4 h
[6] = 0.5 h, read-out: scPTZ, minimum dose effective in half or more animals tested, 0.5 h
[7] = 4 h, read-out: scPTZ, minimum dose effective in half or more animals tested, 4 h

## Cl.O=C(CN1CCN(c2ncccn2)CC1)Nc1cccc(C(F)(F)F)c1 [Compound 21, 2-(4-Pyrimidin-2-ylpiperazin-1-yl)-N-[3-(trifluoromethyl)phenyl]acetamide monohydrochloride]
[1]; [4]
  minimal effective dose: > 300 mg/kg
[1]; [5]
  minimal effective dose: > 300 mg/kg
[2]; [6]
  minimal effective dose: > 300 mg/kg
[2]; [7]
  minimal effective dose: > 300 mg/kg
Mice (rotarod test); male, CF#1, mouse, in vivo
  NT (rotarod), minimum dose neurotoxic in half or more animals tested, 0.5 h: 300 mg/kg

## Cl.O=C(CN1CCN(c2cccc(C(F)(F)F)c2)CC1)Nc1cccc(Cl)c1 [Compound 9, N-(3-chlorophenyl)-2-[4-[3-(trifluoromethyl)phenyl]piperazin-1-yl]acetamide monohydrochloride]
[1]; [4]
  minimal effective dose: > 300 mg/kg
[1]; [5]
  minimal effective dose: > 300 mg/kg
[2]; [6]
  minimal effective dose: > 300 mg/kg
[2]; [7]
  minimal effective dose: > 300 mg/kg

## Cl.O=C(CN1CCN(c2ccccc2Cl)CC1)Nc1cccc(Cl)c1 [Compound 4, N-(3-chlorophenyl)-2-[4-(2-chlorophenyl)piperazin-1-yl]acetamide monohydrochloride]
[1]; [4]
  minimal effective dose: > 300 mg/kg
[1]; [5]
  minimal effective dose: > 300 mg/kg
[2]; [6]
  minimal effective dose: > 300 mg/kg
[2]; [7]
  minimal effective dose: > 300 mg/kg

## Cl.O=C(CN1CCN(c2ccccc2)CC1)Nc1cccc(Cl)c1 [Compound 3, N-(3-chlorophenyl)-2-(4-phenylpiperazin-1-yl)acetamide monohydrochloride]
[1]; [4]
  minimal effective dose: > 300 mg/kg
[1]; [5]
  minimal effective dose: > 300 mg/kg
[2]; [6]
  minimal effective dose: > 300 mg/kg
[2]; [7]
  minimal effective dose: > 300 mg/kg

## O=C(CN1CCN(c2ccc(Cl)cc2)CC1)Nc1cccc(C(F)(F)F)c1 [Compound 16, 2-[4-(4-Chlorophenyl)piperazin-1-yl]-N-[3-(trifluoromethyl)phenyl]acetamide]
[1]; [4]
  minimal effective dose: > 300 mg/kg
[1]; [5]
  minimal effective dose: 100 mg/kg
[2]; [6]
  minimal effective dose: > 300 mg/kg
[2]; [7]
  minimal effective dose: > 300 mg/kg

## Cl.O=C(CN1CCN(c2ccc(F)cc2)CC1)Nc1cccc(Cl)c1 [Compound 8, N-(3-chlorophenyl)-2-[4-(4-fluorophenyl)piperazin-1-yl]acetamide monohydrochloride]
[1]; [4]
  minimal effective dose: > 300 mg/kg
[1]; [5]
  minimal effective dose: > 300 mg/kg
[2]; [6]
  minimal effective dose: > 300 mg/kg
[2]; [7]
  minimal effective dose: > 300 mg/kg

## CN1CCN(CC(=O)Nc2cccc(Cl)c2)CC1.Cl.Cl [Compound 12, N-(3-chlorophenyl)-2-(4-methylpiperazin-1-yl)acetamide dihydrochloride]
[1]; [4]
  minimal effective dose: 100 mg/kg
[1]; [5]
  minimal effective dose: > 300 mg/kg
[2]; [6]
  minimal effective dose: > 300 mg/kg
[2]; [7]
  minimal effective dose: > 300 mg/kg
[3]; 0.25 h
  6-Hz, % of animals protected, 0.25 h: 75%
[3]; 0.5 h
  6-Hz, % of animals protected, 0.5 h: 75%
[3]; current 32 mA, 0.25 h
  6-Hz, number of mice protected/number of mice tested, 0.25 h: 3/4
[3]; current 32 mA, 0.5 h
  6-Hz, number of mice protected/number of mice tested, 0.5 h: 3/4
[3]; current 32 mA, 1 h
  6-Hz, number of mice protected/number of mice tested, 1 h: 0/4
[3]; current 32 mA, 2 h
  6-Hz, number of mice protected/number of mice tested, 2 h: 0/4
[3]; current 32 mA, 4 h
  6-Hz, number of mice protected/number of mice tested, 4 h: 0/4

## Cl.O=C(CN1CCN(c2ccc(Cl)cc2)CC1)Nc1cccc(Cl)c1 [Compound 5, N-(3-chlorophenyl)-2-[4-(4-chlorophenyl)piperazin-1-yl]acetamide monohydrochloride]
[1]; [4]
  minimal effective dose: > 300 mg/kg
[1]; [5]
  minimal effective dose: > 300 mg/kg
[2]; [6]
  minimal effective dose: > 300 mg/kg
[2]; [7]
  minimal effective dose: > 300 mg/kg

## Cl.O=C(CN1CCN(c2ccccc2F)CC1)Nc1cccc(C(F)(F)F)c1 [Compound 18, 2-[4-(2-Fluorophenyl)piperazin-1-yl]-N-[3-(trifluoromethyl)phenyl]acetamide monohydrochloride]
[1]; [4]
  minimal effective dose: > 300 mg/kg
[1]; [5]
  minimal effective dose: 100 mg/kg
[2]; [6]
  minimal effective dose: > 300 mg/kg
[2]; [7]
  minimal effective dose: > 300 mg/kg

## Cl.O=C(CN1CCN(c2ccccc2F)CC1)Nc1cccc(Cl)c1 [Compound 7, N-(3-chlorophenyl)-2-[4-(2-fluorophenyl)piperazin-1-yl]acetamide monohydrochloride]
[1]; [4]
  minimal effective dose: > 300 mg/kg
[1]; [5]
  minimal effective dose: > 300 mg/kg
[2]; [6]
  minimal effective dose: > 300 mg/kg
[2]; [7]
  minimal effective dose: > 300 mg/kg

## Cl.O=C(CN1CCN(c2cccc(Cl)c2Cl)CC1)Nc1cccc(Cl)c1 [Compound 6, N-(3-chlorophenyl)-2-[4-(2,3-dichlorophenyl)piperazin-1-yl]acetamide monohydrochloride]
[1]; [4]
  minimal effective dose: > 300 mg/kg
[1]; [5]
  minimal effective dose: > 300 mg/kg
[2]; [6]
  minimal effective dose: > 300 mg/kg
[2]; [7]
  minimal effective dose: > 300 mg/kg

## Cl.Cl.O=C(CN1CCN(CCO)CC1)Nc1cccc(C(F)(F)F)c1 [Compound 23, 2-[4-(2-Hydroxyethyl)piperazin-1-yl]-N-[3-(trifluoromethyl)phenyl]acetamide dihydrochloride]
[1]; [4]
  minimal effective dose: 300 mg/kg
[1]; [5]
  minimal effective dose: 300 mg/kg
[2]; [6]
  minimal effective dose: > 300 mg/kg
[2]; [7]
  minimal effective dose: > 300 mg/kg
Mice (rotarod test); male, CF#1, mouse, in vivo
  NT (rotarod), minimum dose neurotoxic in half or more animals tested, 0.5 h: 300 mg/kg

## Cl.O=C(CN1CCN(c2ccccc2Cl)CC1)Nc1cccc(C(F)(F)F)c1 [Compound 15, 2-[4-(2-Chlorophenyl)piperazin-1-yl]-N-[3-(trifluoromethyl)phenyl]acetamide monohydrochloride]
[1]; [4]
  minimal effective dose: > 300 mg/kg
[1]; [5]
  minimal effective dose: > 300 mg/kg
[2]; [6]
  minimal effective dose: > 300 mg/kg
[2]; [7]
  minimal effective dose: > 300 mg/kg

## Cl.O=C(CN1CCN(c2ncccn2)CC1)Nc1cccc(Cl)c1 [Compound 10, N-(3-chlorophenyl)-2-(4-pyrimidin-2-ylpiperazin-1-yl)acetamide monohydrochloride]
[1]; [4]
  minimal effective dose: > 300 mg/kg
[1]; [5]
  minimal effective dose: > 300 mg/kg
[2]; [6]
  minimal effective dose: > 300 mg/kg
[2]; [7]
  minimal effective dose: > 300 mg/kg

## O=C(CN1CCN(c2cccc(Cl)c2Cl)CC1)Nc1cccc(C(F)(F)F)c1 [Compound 17, 2-[4-(2,3-Dichlorophenyl)piperazin-1-yl]-N-[3-(trifluoromethyl)phenyl]acetamide]
[1]; [4]
  minimal effective dose: > 300 mg/kg
[1]; [5]
  minimal effective dose: > 300 mg/kg
[2]; [6]
  minimal effective dose: > 300 mg/kg
[2]; [7]
  minimal effective dose: > 300 mg/kg

## Cl.Cl.O=C(CN1CCN(Cc2ccccc2)CC1)Nc1cccc(Cl)c1 [Compound 11, 2-(4-Benzylpiperazin-1-yl)-N-(3-chlorophenyl)acetamide dihydrochloride]
[1]; [4]
  minimal effective dose: > 300 mg/kg
[1]; [5]
  minimal effective dose: > 300 mg/kg
[2]; [6]
  minimal effective dose: > 300 mg/kg
[2]; [7]
  minimal effective dose: > 300 mg/kg
Mice (rotarod test); male, CF#1, mouse, in vivo
  NT (rotarod), minimum dose neurotoxic in half or more animals tested, 0.5 h: 300 mg/kg
  dose showing neurotoxicity in the rotarod test (NT): 300 mg/kg

## O=C(CN1CCN(c2ccccc2)CC1)Nc1cccc(C(F)(F)F)c1 [Compound 14, 2-(4-Phenylpiperazin-1-yl)-N-[3-(trifluoromethyl)phenyl]acetamide]
[1]; [4]
  minimal effective dose: > 300 mg/kg
[1]; [5]
  minimal effective dose: 100 mg/kg
[2]; [6]
  minimal effective dose: > 300 mg/kg
[2]; [7]
  minimal effective dose: > 300 mg/kg
Mice (rotarod test); male, CF#1, mouse, in vivo
  NT (rotarod), minimum dose neurotoxic in half or more animals tested, 0.5 h: 300^Z mg/kg
  dose showing neurotoxicity in the rotarod test (NT): 300 mg/kg
Mice (rotarod test); male, CF#1, mouse, in vivo, 4 h
  NT (rotarod), minimum dose neurotoxic in half or more animals tested, 4 h: 300 mg/kg
Mice (rotarod test); mice, i.p., 300 mg/kg
  response comment (adverse sign observed): respiratory depression
